The assay has as its system TGFβ signal. Kind of assay: TGFβ signal inhibitory activity, (SBE)4-Luc reporter in A549 cells (Test Examples 1A and 1B). It counts as cell-based, human. The settings on record: Homo sapiens, A549, TGFβ-1 2 ng/ml, 4 hr, Table 1A, read-out: TGFβ inhibition rate, %; for inhibition at 3 µM: test compound 3 µM; for inhibition at 10 µM: test compound 10 µM. The essentials: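 Stable A549 line carrying (SBE)4-Luc Smad3-binding reporter treated with compound plus TGFβ-1 (2 ng/ml) for 4 hr; luciferase read by chemiluminescence. Percent inhibition relative to TGFβ-only and untreated cells, tested at 3 µM and 10 µM, some also at 1 µM.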

In the case of `COc1cc2nccc(Oc3cc4cccnc4nc3-c3ccc(F)cc3)c2cc1OC` [Compound 83, 3-(6,7-Dimethoxy-quinolin-4-yloxy)-2-(4-fluoro-phenyl)-[1,8]naphthyridine], the inhibition at 3 µM was found to be 92% and the inhibition at 10 µM is 99%.
Consider `COc1cc2nccc(Oc3cc4cccnc4nc3-c3ccc(Cl)cc3)c2cc1OC` [Compound 84, 2-(4-Chloro-phenyl)-3-(6,7-dimethoxy-quinolin-4-yloxy)-[1,8]naphthyridine], for which the inhibition at 3 µM came out at 69% and the inhibition at 10 µM is 100%.
As for `COc1cc2nccc(Oc3cc4cccnc4nc3-c3ccc(Br)cc3)c2cc1OC` [Compound 85, 2-(4-Bromo-phenyl)-3'-(6,7-dimethoxy-quinolin-4-yloxy)-[1,8]naphthyridine], the inhibition at 3 µM turned out to be 48% and the inhibition at 10 µM is 97%.
Consider `COc1cc2nccc(Oc3cc4cccnc4nc3-c3ccc(C#N)cc3)c2cc1OC` [Compound 86, 4-[3-(6,7-Dimethoxy-quinolin-4-yloxy)-[1,8]naphthyridin-2-yl]-benzonitrile], for which the inhibition at 3 µM amounted to 26% and the inhibition at 10 µM came out at 74%.
For `COc1cc2nccc(Oc3cc4cccnc4nc3-c3cccnc3)c2cc1OC` [Compound 88, 3-(6,7-Dimethoxy-quinolin-4-yloxy)-2-pyridin-3-yl-[1,8]naphthyridine], the inhibition at 3 µM was determined as 90% and the inhibition at 10 µM worked out at 100%.
The matching figures for `COc1cc2nccc(Oc3cc4cccnc4nc3-c3ccncc3)c2cc1OC` [Compound 89, 3-(6,7-Dimethoxy-quinolin-4-yloxy)-2-pyridin-4-yl-[1,8]naphthyridine]: 36% and 77%.
Take `c1cnc2nc(-c3csc4ccccc34)c(Oc3ccnc4ccccc34)cc2c1` [Compound 90, 2-Benzo[b]thiophen-3-yl-3-(quinolin-4-yloxy)-[1,8]naphthyridine]: the inhibition at 3 µM is 22% and the inhibition at 10 µM was 68%.
`COc1cc2nccc(Oc3cc4cccnc4nc3-c3csc4ccccc34)c2cc1OC` [Compound 91, 2-Benzo[b]thiophen-3-yl-3-(6,7-dimethoxy-quinolin-4-yloxy)-[1,8]naphthyridine]: the inhibition at 3 µM came out at 97% and the inhibition at 10 µM came to 100%.
`COc1cc2nccc(Oc3cc4ccccc4nc3-c3ncccn3)c2cc1OC` [Compound 92, 6,7-Dimethoxy-4-(2-pyrimidin-2-yl-quinolin-3-yloxy)-quinoline]: the inhibition at 3 µM turned out to be 98%. The inhibition at 1 µM (test compound 1 µM) stood at 62%.
For `COc1cc2nccc(Oc3cc4cnccc4nc3-c3ccccc3)c2cc1OC` [Compound 93, 3-(6,7-Dimethoxy-quinolin-4-yloxy)-2-phenyl-[1,6]naphthyridine], the inhibition at 3 µM was found to be 97% and the inhibition at 10 µM is 100%.
Turning to `COc1cc2nccc(Oc3cc4cnccc4nc3-c3cccnc3)c2cc1OC` [Compound 95, 3-(6,7-Dimethoxy-quinolin-4-yloxy)-2-pyridin-3-yl-[1,6]naphthyridine], the inhibition at 3 µM was 40% and the inhibition at 10 µM was found to be 85%.
For `COc1cc2nccc(Oc3cc4ccncc4nc3C)c2cc1OC` [Compound 97, 3-(6,7-Dimethoxy-quinolin-4-yloxy)-2-methyl-[1,7]naphthyridine], the inhibition at 3 µM came out at 52% and the inhibition at 10 µM came out at 88%.
Take `COc1cc2nccc(Oc3cc4ccncc4nc3-c3ccccc3)c2cc1OC` [Compound 98, 3-(6,7-Dimethoxy-quinolin-4-yloxy)-2-phenyl-[1,7]naphthyridine]: the inhibition at 3 µM was found to be 94% and the inhibition at 10 µM was 100%.
The matching figures for `COc1cc2nccc(Oc3cc4c(nc3-c3ccccc3)NCCC4)c2cc1C(=O)NCc1ccccc1` [Compound 99, 7-Methoxy-4-(2-phenyl-5,6,7,8-tetrahydro-[1,8]naphthyridin-3-yloxy)-quinoline-6-carboxylate benzylamide]: 76% and 92%.
Take `Fc1cc2nccc(Oc3cc4cccnc4nc3-c3ccccc3)c2cc1F` [Compound 101]: the inhibition at 3 µM is 54% and the inhibition at 10 µM is 98%.
As for `Fc1cc2nccc(Oc3cc4cccnc4nc3-c3ccccc3)c2c(F)c1F` [Compound 102, 2-Phenyl-3-(5,6,7-trifluoro-quinolin-4-yloxy)-[1,8]naphthyridine], the inhibition at 3 µM came out at 45% and the inhibition at 10 µM came out at 92%.
Consider `Cc1cc(Oc2ccnc3ccc(F)cc23)c(-c2ccccn2)nc1C` [Compound 103, 3-(6-Fluoro-quinolin-4-yloxy)-5,6-dimethyl-[2,2']bipyridine], for which the inhibition at 3 µM was 99% and the inhibition at 10 µM was found to be 100%.
On to `COc1cc2c(Oc3cc(C)c(C)nc3-c3ccccn3)ccnc2cc1F` [Compound 104, 3-(7-Fluoro-6-methoxy-quinolin-4-yloxy)-5,6-dimethyl-[2,2']bipyridine], for which the inhibition at 3 µM turned out to be 99% and the inhibition at 10 µM is 100%.
Take `COc1cc2c(Oc3cc(C)c(C)nc3-c3ccccn3)ccnc2cc1Cl` [Compound 105, 3-(7-Chloro-6-methoxy-quinolin-4-yloxy)-5,6-dimethyl-[2,2']bipyridine]: the inhibition at 3 µM came to 100% and the inhibition at 10 µM is 100%.
On to `Cc1cc(Oc2ccnc3cc(-c4cccc(O)c4)ccc23)c(-c2ccccn2)nc1C` [Compound 106, 3-[4-(5,6-Dimethyl-[2,2']bipyridinyl-3-yloxy)-quinolin-7-yl]-phenol], for which the inhibition at 3 µM stood at 99% and the inhibition at 10 µM worked out at 100%.
As to `Cc1cc(Oc2ccnc3cc(-c4ccc(O)cc4)ccc23)c(-c2ccccn2)nc1C` [Compound 107, 4-[4-(5,6-Dimethyl-[2,2']bipyridinyl-3-yloxy)-quinolin-7-yl]-phenol], the inhibition at 3 µM stood at 100% and the inhibition at 10 µM was found to be 100%.
On to `Cc1cc(Oc2ccnc3cc(-c4ccccc4N)ccc23)c(-c2ccccn2)nc1C` [Compound 108, 2-[4-(5,6-Dimethyl-[2,2']bipyridinyl-3-yloxy)-quinolin-7-yl]-phenylamine], for which the inhibition at 3 µM came out at 96% and the inhibition at 10 µM is 100%.
For the molecule `COc1cc2nccc(Oc3cc(C)c(C)nc3-c3ccccn3)c2cc1F` [Compound 110, 3-(6-Fluoro-7-methoxy-quinolin-4-yloxy)-5,6-dimethyl-[2,2']bipyridine], the inhibition at 3 µM was found to be 100% and the inhibition at 10 µM stood at 100%.
For the molecule `Cc1cc(Oc2ccnc3c(F)cc(F)cc23)c(-c2ccccn2)nc1C` [Compound 111, 3-(6,8-Difluoro-quinolin-4-yloxy)-5,6-dimethyl-[2,2']bipyridine], the inhibition at 3 µM stood at 43% and the inhibition at 10 µM was 84%.
For `COC(=O)c1ccc2c(Oc3cc4cccnc4nc3-c3ccccc3)ccnc2c1` [Compound 113, Methyl 4-(2-Phenyl-[1,8]naphthyridin-3-yloxy)-quinoline-7-carboxarlate], the inhibition at 3 µM was 95% and the inhibition at 10 µM came out at 100%.
In the case of `COc1cc2nccc(Oc3ccc(F)nc3-c3ccccn3)c2cc1OC` [Compound 115, 3-(6,7-Dimethoxy-quinolin-4-yloxy)-6-fluoro-[2,2']bipyridine], the inhibition at 3 µM is 100% and the inhibition at 10 µM is 100%.
For `COC(=O)c1cc2nccc(Oc3cc4cccnc4nc3-c3ccccc3)c2cc1OC` [Compound 116, Methyl 6-methoxy-4-(2-phenyl-[1,8]naphthyridin-3-yloxy)-quinoline-7-carboxylate], the inhibition at 3 µM came out at 99% and the inhibition at 10 µM was found to be 100%.
With `CCc1ccc(Oc2ccnc3ccccc23)c(-c2ncccn2)n1` [Compound 117, 4-(6-Ethyl-2-pyrimidin-2-yl-pyridin-3-yloxy)-quinoline], the inhibition at 3 µM came to 96% and the inhibition at 10 µM worked out at 100%.
With `COc1cc2nccc(Oc3cc4cccnc4nc3-c3ccccc3)c2cc1OC(C)C` [Compound 118, 3-(6-Isopropoxy-7-methoxy-quinolin-4-yloxy)-2-phenyl-[1,8]naphthyridine], the inhibition at 3 µM came to 100% and the inhibition at 10 µM was found to be 100%.
Take `COc1cc2c(Oc3cc(C)c(C)nc3-c3ccccn3)ccnc2cc1C` [Compound 119, 3-(6-Methoxy-7-methyl-quinolin-4-yloxy)-5,6-dimethyl-[2,2']bipyridine]: the inhibition at 3 µM turned out to be 100% and the inhibition at 10 µM amounted to 100%.
`COc1cc2nccc(Oc3cc(C)c(C)nc3-c3ccccn3)c2cc1OC(C)C` [Compound 120, 3-(6-Isopropoxy-7-methoxy-quinolin-4-yloxy)-5,6-dimethyl-[2,2']bipyridine]: the inhibition at 3 µM worked out at 94% and the inhibition at 10 µM turned out to be 100%.
The matching figures for `COc1ccc2nccc(Oc3cc(C)c(C)nc3-c3ccccn3)c2n1` [Compound 121, 8-(5,6-Dimethyl-[2,2']bipyridinyl-3-yloxy)-2-methoxy-[1,5]naphthyridine]: 98% and 100%.
As to `COc1cc2nccc(Oc3cc4cccnc4nc3-c3ccccc3)c2cc1OCc1ccccc1` [Compound 123, 3-(6-Benzyloxy-7-methoxy-quinolin-4-yloxy)-2-phenyl-[1,8]naphthyridine], the inhibition at 3 µM is 99% and the inhibition at 10 µM was found to be 100%.
Take `COc1cc2nccc(Oc3cc4cccnc4nc3-c3ccccc3)c2cc1O` [Compound 124, 7-Methoxy-4-(2-phenyl-[1,8]naphthyridin-3-yloxy)-quinolin-6-ol]: the inhibition at 3 µM worked out at 99% and the inhibition at 10 µM turned out to be 100%.

For the origin of these results see patent EP1724268A1, “COMPOUND HAVING TGF-BETA INHIBITORY ACTIVITY AND PHARMACEUTICAL COMPOSITION CONTAINING SAME” (KIRIN BEER KABUSHIKI KAISHA, priority 2004, dated 2005).
